{
  "source": "paper PMC11079024",
  "about": "“Identification of a family of species-selective complex I inhibitors as potential anthelmintics” (Nature Communications, 2024)",
  "key": {"[1]": {"target": "B. taurus (heart) complex I (Bos taurus, UniProt P03887+P17694+P42026)", "sequence (P03887 whole entry)": "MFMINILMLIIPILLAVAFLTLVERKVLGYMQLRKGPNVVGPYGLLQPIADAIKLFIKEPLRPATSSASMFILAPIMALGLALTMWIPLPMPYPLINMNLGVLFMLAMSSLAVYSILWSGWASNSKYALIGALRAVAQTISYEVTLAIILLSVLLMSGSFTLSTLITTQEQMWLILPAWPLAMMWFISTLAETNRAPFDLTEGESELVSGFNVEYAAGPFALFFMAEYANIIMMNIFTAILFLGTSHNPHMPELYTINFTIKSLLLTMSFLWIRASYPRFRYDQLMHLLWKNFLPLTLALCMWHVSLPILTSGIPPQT", "sequence (P17694 34-463)": "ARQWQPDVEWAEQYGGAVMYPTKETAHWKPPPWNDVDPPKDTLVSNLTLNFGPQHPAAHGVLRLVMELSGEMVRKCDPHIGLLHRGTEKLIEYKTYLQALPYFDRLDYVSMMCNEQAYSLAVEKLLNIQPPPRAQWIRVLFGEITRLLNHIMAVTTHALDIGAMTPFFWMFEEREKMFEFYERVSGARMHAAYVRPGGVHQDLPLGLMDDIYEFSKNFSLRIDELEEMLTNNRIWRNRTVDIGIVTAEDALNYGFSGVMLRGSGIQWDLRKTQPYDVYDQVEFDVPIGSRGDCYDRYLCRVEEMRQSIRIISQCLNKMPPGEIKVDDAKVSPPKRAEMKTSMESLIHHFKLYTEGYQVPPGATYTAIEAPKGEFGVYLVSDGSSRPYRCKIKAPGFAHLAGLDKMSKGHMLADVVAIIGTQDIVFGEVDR", "sequence (P42026 38-216)": "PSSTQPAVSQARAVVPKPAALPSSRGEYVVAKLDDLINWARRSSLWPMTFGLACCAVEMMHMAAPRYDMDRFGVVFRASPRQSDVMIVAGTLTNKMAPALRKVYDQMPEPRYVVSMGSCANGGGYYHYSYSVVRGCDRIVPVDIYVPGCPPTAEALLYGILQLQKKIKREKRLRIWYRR", "assay": "biochemical", "format": "biochemical", "conditions": "for IC50: heart mitochondria, read-out: B. taurus Complex I IC50", "in_short": "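Complex I activity followed as DCIP reduction (600 nm, 30 s reads, 15 min) with 80 μM NADH and 60 μM decylubiquinone in 25 mM KPi pH 7.5 containing 2 μM antimycin A and 2 mM KCN. Freeze-thawed mouse or bovine heart mitochondria at 0.2 mg/mL; initial-rate percent of solvent control, single-point 100 μM or dose-response.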"}, "[2]": {"tested_on": "L1 wild-type C. elegans"}, "[3]": {"tested_on": "ben-1 mutant (ECA882) C. elegans", "assay": "microbe, parasite or virus in culture", "conditions": "for LC50: Caenorhabditis elegans; for C. elegans L1 relative development & viability: ECA882 deletion (ben-1)", "method": "Liquid development and viability assays were adapted from a previously established chemical screening protocol (Burns et al.)[24]. In brief, a saturated culture of E. coli HB101 was concentrated 2-fold in liquid NGM and 40 μL of this suspension was distributed to each well of a 96-well flat-bottom culture plate. 0.5 μL chemical solution (or DMSO alone) was added to each well (1% DMSO v/v) using either a multi-channel pipette or a pinning tool (V&P Scientific). L1 worms synchronized from an embryo preparation performed the day prior were diluted to a concentration of ~2 worms/μL in M9 buffer; 10 μL worm suspension was then added to each well. Culture plates were sealed with parafilm and placed in a plastic container lined with wet paper towels to prevent evaporation. Containers were then incubated for 6 days at 20 °C with shaking at 165 rpm. Following incubation, 300 μL M9 was added to each well to decrease the turbidity of the HB101-NGM suspension. Single images of each microplate well were then taken on a Nikon Ti Eclipse inverted microscope (Nikon NIS Elements AR). Images were processed using Python scripts to isolate worm-associated pixels from background. Scores of worm development and viability were determined as the sum of worm-associated pixels in each well. Development/viability scores for each well were divided by the development /viability scores for the corresponding DMSO controls, resulting in a relative viability value for each chemical. At least three biological replicates were performed for each dose-response experiment; relative viability values were averaged across replicates. […]\nanthelmintics. a. Chemical structures of four commercial benzimidazole anthelmintics (e.g., albendazole, […]\nDose response of four commercial […]\nelegans strains: N2, wild type; ECA882, deletion (ben-1); ECA917, F200Y (ben-1); ECA1075, F167Y (ben-1); ECA1080, E198A (ben-1); CB3474, G104D (ben-1). The colour-coded scale denotes the phenotypic outcome of drug treatment (e.g., motility or viability) relative to DMSO controls; white/pale- […]\ndeath and arrested development. c. […]\nbenzimidazole anthelmintics (blue) were conducted in C. elegans development and viability assays for wild type (N2) and ben-1 mutant (ECA882) C. elegans (see Supplementary Date File 1).\nAll data used for generation of dose-response curves is the mean of at least three […]\nSupplementary Figure 7 (continued). Davie et al."}, "[4]": {"conditions": "B. taurus (heart) mitochondria, mean of replicates, read-out: percent (%) in vitro complex I activity relative to solvent control"}, "[5]": {"conditions": "B. taurus (heart) mitochondria, single replicate, read-out: percent (%) in vitro complex I activity relative to solvent control"}},
  "note": "Where two headings read alike, the source gives them in different places.",
  "data": [
    {"smiles": "CC(C)(C)c1ccc(CCOc2ncnc3ccccc23)cc1", "note": "[Fenazaquin, reference compound]", "values": [
      {"measurement": "IC50", "setting": "[1]", "value": 0.024, "unit": "µM"}
    ]},
    {"smiles": "COc1ccc(Cc2nccc3cc(OC)c(OC)cc23)cc1OC", "note": "[Papaverine, reference compound]", "values": [
      {"measurement": "remaining activity at 0.125 µM", "setting": "[1]; [4]", "value": 93.4, "unit": "%"},
      {"measurement": "remaining activity at 0.125 µM", "setting": "[1]; [5]", "value": 87.6, "unit": "%"},
      {"measurement": "remaining activity at 0.313 µM", "setting": "[1]; [4]", "value": 93.3, "unit": "%"},
      {"measurement": "remaining activity at 0.313 µM", "setting": "[1]; [5]", "value": 92.3, "unit": "%"},
      {"measurement": "remaining activity at 0.625 µM", "setting": "[1]; [4]", "value": 91.6, "unit": "%"},
      {"measurement": "remaining activity at 0.625 µM", "setting": "[1]; [5]", "value": 89.2, "unit": "%"},
      {"measurement": "remaining activity at 1.5 µM", "setting": "[1]; [4]", "value": 83.3, "unit": "%"},
      {"measurement": "remaining activity at 1.5 µM", "setting": "[1]; [5]", "value": 88.4, "unit": "%"},
      {"measurement": "remaining activity at 3 µM", "setting": "[1]; 3 µM, B. taurus (heart) mitochondria, mean of replicates, read-out: percent (%) in vitro complex I activity relative to solvent control", "value": 76.1, "unit": "%"},
      {"measurement": "remaining activity at 15 µM", "setting": "[1]; 15 µM, B. taurus (heart) mitochondria, mean of replicates, read-out: percent (%) in vitro complex I activity relative to solvent control", "value": 30.1, "unit": "%"},
      {"measurement": "remaining activity at 37.5 µM", "setting": "[1]; 37.5 µM, B. taurus (heart) mitochondria, mean of replicates, read-out: percent (%) in vitro complex I activity relative to solvent control", "value": 12.9, "unit": "%"},
      {"measurement": "remaining activity at 75 µM", "setting": "[1]; [4]", "value": 6.58, "unit": "%"},
      {"measurement": "remaining activity at 75 µM", "setting": "[1]; [5]", "value": 9.15, "unit": "%"},
      {"measurement": "IC50", "setting": "[1]", "value": 8.5, "unit": "µM"}
    ]},
    {"smiles": "O=C(NCCc1ccc(Cl)cc1)c1ccccc1C(F)(F)F", "note": "[Wact-11]", "values": [
      {"measurement": "C. elegans L1 relative motility, 3-hour post 200 µM KCN dilution", "setting": "[2]", "value": 0.985},
      {"measurement": "KCN survival assay value relative to DMSO control", "setting": "[2]", "value": 0.985},
      {"measurement": "relative motility, 20 min after KCN removal", "setting": "[2]", "value": 0.070},
      {"measurement": "relative motility, 80 min after KCN removal", "setting": "[2]", "value": 0.012},
      {"measurement": "relative motility, 110 min after KCN removal", "setting": "[2]", "value": 0.018},
      {"measurement": "relative motility, 160 min after KCN removal", "setting": "[2]", "value": 0.009},
      {"measurement": "relative motility, 180 min after KCN removal", "setting": "[2]", "value": 0.000},
      {"measurement": "KCN survival assay value relative to DMSO control", "setting": "[2]; 15 hour drug + KCN treatment, dose 0.1 µM, Mean of replicates", "value": 0.937},
      {"measurement": "KCN survival assay value relative to DMSO control", "setting": "[2]; 15 hour drug + KCN treatment, dose 0.2 µM, Mean of replicates", "value": 0.997},
      {"measurement": "KCN survival assay value relative to DMSO control", "setting": "[2]; 15 hour drug + KCN treatment, dose 0.4 µM, Mean of replicates", "value": 0.959},
      {"measurement": "KCN survival assay value relative to DMSO control", "setting": "[2]; 15 hour drug + KCN treatment, dose 0.8 µM, Mean of replicates", "value": 0.815},
      {"measurement": "KCN survival assay value relative to DMSO control", "setting": "[2]; 15 hour drug + KCN treatment, dose 3.1 µM, Mean of replicates", "value": 0.584},
      {"measurement": "KCN survival assay value relative to DMSO control", "setting": "[2]; 15 hour drug + KCN treatment, dose 6.3 µM, Mean of replicates", "value": 0.376},
      {"measurement": "KCN survival assay value relative to DMSO control", "setting": "[2]; 15 hour drug + KCN treatment, dose 12.5 µM, Mean of replicates", "value": 0.173},
      {"measurement": "KCN survival assay value relative to DMSO control", "setting": "[2]; 15 hour drug + KCN treatment, dose 25 µM, Mean of replicates", "value": 0.067},
      {"measurement": "KCN survival assay value relative to DMSO control", "setting": "[2]; 15 hour drug + KCN treatment, dose 50 µM, Mean of replicates", "value": 0.015},
      {"measurement": "KCN survival assay value relative to DMSO control", "setting": "[2]; 15 hour drug + KCN treatment, dose 100 µM, Mean of replicates", "value": 0.006},
      {"measurement": "LC50", "setting": "[2]; caenorhabditis elegans", "value": 4.43, "unit": "µM"},
      {"measurement": "C. elegans L1 relative motility, 3-hour post 200 µM KCN dilution", "setting": "[2]; dose 0.1 µM, Mean of replicates", "value": 0.937},
      {"measurement": "C. elegans L1 relative motility, 3-hour post 200 µM KCN dilution", "setting": "[2]; dose 0.2 µM, Mean of replicates", "value": 0.997},
      {"measurement": "C. elegans L1 relative motility, 3-hour post 200 µM KCN dilution", "setting": "[2]; dose 0.4 µM, Mean of replicates", "value": 0.959},
      {"measurement": "C. elegans L1 relative motility, 3-hour post 200 µM KCN dilution", "setting": "[2]; dose 0.8 µM, Mean of replicates", "value": 0.815},
      {"measurement": "C. elegans L1 relative motility, 3-hour post 200 µM KCN dilution", "setting": "[2]; dose 3.1 µM, Mean of replicates", "value": 0.584},
      {"measurement": "C. elegans L1 relative motility, 3-hour post 200 µM KCN dilution", "setting": "[2]; dose 6.3 µM, Mean of replicates", "value": 0.376},
      {"measurement": "C. elegans L1 relative motility, 3-hour post 200 µM KCN dilution", "setting": "[2]; dose 12.5 µM, Mean of replicates", "value": 0.173},
      {"measurement": "C. elegans L1 relative motility, 3-hour post 200 µM KCN dilution", "setting": "[2]; dose 25 µM, Mean of replicates", "value": 0.067},
      {"measurement": "C. elegans L1 relative motility, 3-hour post 200 µM KCN dilution", "setting": "[2]; dose 50 µM, Mean of replicates", "value": 0.015},
      {"measurement": "C. elegans L1 relative motility, 3-hour post 200 µM KCN dilution", "setting": "[2]; dose 100 µM, Mean of replicates", "value": 0.006},
      {"measurement": "C. elegans L1 relative motility, 3-hour post 200 µM KCN dilution", "setting": "[2]; dose […], Mean of replicates", "value": 0.795}
    ]},
    {"smiles": "COC(=O)Nc1nc2ccc(C(=O)c3ccccc3)cc2[nH]1", "note": "[mebendazole, reference compound]", "values": [
      {"measurement": "LC50", "setting": "[3]; read-out: C. elegans ben-1 LC50", "value": "> 250", "unit": "µM"},
      {"measurement": "LC50", "setting": "[3]; read-out: C. elegans ben-1 log10 LC50 (converted)", "value": "> 250", "unit": "µM"},
      {"measurement": "C. elegans L1 relative development & viability", "setting": "[3]; 1 µM, score 0-1 relative to DMSO, values >1 set to 1", "value": 1.000},
      {"measurement": "C. elegans L1 relative development & viability", "setting": "[3]; 2 µM, score 0-1 relative to DMSO, values >1 set to 1", "value": 1.000},
      {"measurement": "C. elegans L1 relative development & viability", "setting": "[3]; 3.9 µM, score 0-1 relative to DMSO, values >1 set to 1", "value": 1.000},
      {"measurement": "C. elegans L1 relative development & viability", "setting": "[3]; 15.6 µM, score 0-1 relative to DMSO, values >1 set to 1", "value": 1.000},
      {"measurement": "C. elegans L1 relative development & viability", "setting": "[3]; 31.3 µM, score 0-1 relative to DMSO, values >1 set to 1", "value": 1.000},
      {"measurement": "C. elegans L1 relative development & viability", "setting": "[3]; 62.5 µM, […]", "value": 0.948},
      {"measurement": "C. elegans L1 relative development & viability", "setting": "[3]; 125 µM, […]", "value": 0.701},
      {"measurement": "C. elegans L1 relative development & viability", "setting": "[3]; 250 µM, […]", "value": 0.623}
    ]}
  ]
}
